This is an account of results in ChEMBL document CHEMBL1201862, “PubChem BioAssay data set” (2004).

Test systems include SK-MEL-2; NCI-H460; CAKI-1; SNB-19; KM12; LOX IMVI; OVCAR-5; UACC-62; HCT-15; OVCAR-8; OVCAR-3; SF-268; SF-295; HL-60; MOLT-4; SK-MEL-5.
What all share (experiment): NCI tumour cell line growth inhibition, 48 h

Structures are written as SMILES.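 Five compound concentrations were applied to cells in 96-well plates for 48 hours; endpoints were derived by simple linear interpolation of the resulting dose-response curve. The concentration for 50% growth inhibition is given as GI50.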 Activity calls are given as the source filed them. Cut-off read from the data, not from the text of the source: active = GI50 up to about 1.1 µM and inactive = higher.

As for `CCC(=O)CCC1=Nc2nnc(CCCCc3nnc4n3C(=O)C(CCC(=O)CC)=N4)n2C1=O`, the GI50 in the assay on SK-MEL-2, in the assay on NCI-H460, in the assay on CAKI-1, in the assay on SNB-19, in the assay with KM12 and with LOX IMVI was > 100 µM (inactive) throughout. The GI50 was > 100 µM (inactive) in the assay with OVCAR-5; > 100 µM (inactive) in the assay on UACC-62; > 100 µM in the assay on HCT-15; > 100 µM (inactive) with OVCAR-8; > 100 µM (inactive) in the assay on OVCAR-3; > 100 µM (inactive) with SF-268. Besides, the GI50 with SF-295, with HL-60 and with MOLT-4 was > 100 µM (inactive) each time.
`Cc1ccccc1C(=O)Oc1ccc(OCc2ccccc2)cc1`: the GI50 in the assay on NCI-H460 was 39.1 µM (inactive); in the assay on SNB-19, > 100 µM (inactive); in the assay with KM12, > 100 µM (inactive); with LOX IMVI it was 99.1 µM (inactive); in the assay on OVCAR-5 it was 45.3 µM (inactive); in the assay with UACC-62 it was 83.8 µM (inactive). The GI50 in the assay on HCT-15 is 38.6 µM; in the assay on OVCAR-8, > 100 µM (inactive); in the assay on OVCAR-3, > 100 µM (inactive); in the assay on SF-268, > 100 µM (inactive); in the assay on SF-295, > 100 µM (inactive); in the assay with SK-MEL-5, 48.6 µM (inactive). Besides, the GI50 in the assay on HL-60 is 5.82 µM (inactive); in the assay with MOLT-4, 9.44 µM (inactive).
Turning to `N#CCCN(CCC#N)c1ccc(/C=C(/NC(=O)c2cc([N+](=O)[O-])ccc2Cl)C(=O)NN)cc1`, the GI50 in the assay on SK-MEL-2 is > 100 µM (inactive); in the assay with NCI-H460, > 100 µM (inactive); with CAKI-1, > 100 µM (inactive); in the assay on SNB-19, > 100 µM (inactive); with KM12, > 100 µM (inactive); with LOX IMVI, 41.4 µM (inactive). Also, the GI50 was > 100 µM (inactive) in the assay on OVCAR-5; > 100 µM (inactive) in the assay on UACC-62; > 100 µM in the assay with HCT-15; 58.3 µM (inactive) with OVCAR-8; 77.8 µM (inactive) in the assay on OVCAR-3; > 100 µM (inactive) with SF-268. The GI50 in the assay on SF-295 is > 100 µM (inactive); in the assay with SK-MEL-5, > 100 µM (inactive); in the assay on MOLT-4, 44.8 µM (inactive).
For the compound `Cc1cccc(NC2=NC(=O)C(CC(=O)Nc3cccc(C)c3C)S2)c1` (stereo not drawn), the GI50 in the assay with SK-MEL-2, with NCI-H460, in the assay with SNB-19, in the assay on KM12, in the assay on LOX IMVI and in the assay on OVCAR-5 was > 100 µM (inactive) each time. Further, the GI50 with UACC-62, in the assay on OVCAR-8, in the assay with OVCAR-3, with SF-268, with SF-295 and in the assay with SK-MEL-5 was > 100 µM (inactive) throughout. Also, the GI50 with HL-60 was 35.9 µM (inactive); in the assay with MOLT-4 it was 24.3 µM (inactive).
Take `NC(=O)C12CC3CC(CC(F)(C3)C1)C2`: the GI50 in the assay on SK-MEL-2, in the assay on NCI-H460, with KM12, in the assay with LOX IMVI, in the assay on OVCAR-5 and in the assay on UACC-62 was > 100 µM (inactive) each time. Moreover, the GI50 in the assay on OVCAR-8, in the assay on OVCAR-3, in the assay on HL-60 and with MOLT-4 was > 100 µM (inactive) each time.
Regarding `C=CCC1(CN(C)C)CC/C(=C\c2ccc(OC)cc2)C1=O` (stereo not drawn), the GI50 in the assay on SK-MEL-2 is > 100 µM (inactive); with NCI-H460, > 100 µM (inactive); with SNB-19, > 100 µM (inactive); in the assay on KM12 it was 74.3 µM (inactive); with LOX IMVI, > 100 µM (inactive); in the assay on OVCAR-5 it was > 100 µM (inactive). The GI50 in the assay with UACC-62 was > 100 µM (inactive); with HCT-15 it was 52 µM; in the assay on OVCAR-8 it was 69.8 µM (inactive); in the assay with OVCAR-3, > 100 µM (inactive); in the assay on SF-268, > 100 µM (inactive); with SF-295 it was > 100 µM (inactive). In addition, the GI50 with SK-MEL-5 was 41.5 µM (inactive); with HL-60 it was 15 µM (inactive); in the assay with MOLT-4, 28.7 µM (inactive).
As for `CC(=O)OCC1OC(n2c(=S)n(-c3ccccc3)c(=O)c3cc(Br)ccc32)C(OC(C)=O)C1OC(C)=O` (stereo not drawn), the GI50 in the assay on SK-MEL-2 is > 100 µM (inactive); in the assay on NCI-H460, > 100 µM (inactive); in the assay with CAKI-1, 11.6 µM (inactive); in the assay on SNB-19, > 100 µM (inactive); in the assay with KM12, > 100 µM (inactive); with LOX IMVI, > 100 µM (inactive). Also, the GI50 is > 100 µM (inactive) with OVCAR-5; > 100 µM (inactive) in the assay with UACC-62; > 100 µM in the assay on HCT-15; > 100 µM (inactive) in the assay with OVCAR-8; > 100 µM (inactive) in the assay with OVCAR-3; > 100 µM (inactive) in the assay with SF-268. Besides, the GI50 with SF-295 is > 100 µM (inactive); in the assay with SK-MEL-5, > 100 µM (inactive); in the assay on MOLT-4, 53.8 µM (inactive).
Consider `Cc1ccc(S(=O)(=O)N2CCC2c2ccccc2)cc1` (stereo not drawn), for which the GI50 was > 100 µM (inactive) with SK-MEL-2; > 100 µM (inactive) in the assay with NCI-H460; 68.7 µM (inactive) in the assay on SNB-19; 82 µM (inactive) with KM12; > 100 µM (inactive) in the assay on LOX IMVI; 76.7 µM (inactive) in the assay on UACC-62. Besides, the GI50 is > 100 µM with HCT-15; > 100 µM (inactive) in the assay on OVCAR-8; 81.5 µM (inactive) in the assay with OVCAR-3; 82.2 µM (inactive) in the assay on SF-268; 74.6 µM (inactive) in the assay on SF-295; 42 µM (inactive) with SK-MEL-5. The GI50 was 7.13 µM (inactive) with HL-60 and 37.8 µM (inactive) in the assay with MOLT-4.
As for `C=CCC1C(=O)C(C(=O)OC)N2CCc3c([nH]c4ccccc34)C12` (stereo not drawn), the GI50 in the assay with SK-MEL-2, in the assay with CAKI-1, in the assay on SNB-19, with KM12, with OVCAR-5 and with UACC-62 was > 100 µM (inactive) each time. For the same compound, the GI50 with HCT-15 is > 100 µM; in the assay with OVCAR-8, > 100 µM (inactive); in the assay on OVCAR-3 it was > 100 µM (inactive); in the assay with SF-268, > 100 µM (inactive); with SF-295, > 100 µM (inactive); in the assay with SK-MEL-5 it was > 100 µM (inactive). Moreover, the GI50 with HL-60 was > 100 µM (inactive); with MOLT-4, 64.9 µM (inactive).
With `CC(=O)Oc1c(-c2ccccc2)[nH]c2cc([N+](=O)[O-])c(/C(Cl)=C/c3ccccc3)cc12`, the GI50 in the assay with SK-MEL-2 is 9.57 µM (inactive); with NCI-H460, 4.62 µM (inactive); with CAKI-1, 10.7 µM (inactive); with SNB-19, 8.97 µM (inactive); with KM12, 3.97 µM (inactive); in the assay on OVCAR-5, 4.22 µM (inactive). The GI50 in the assay with UACC-62 was 4.24 µM (inactive); in the assay with OVCAR-8, 4.3 µM (inactive); with OVCAR-3 it was 7.66 µM (inactive); in the assay on SF-268, 7.96 µM (inactive); with SF-295, 4.08 µM (inactive); in the assay on SK-MEL-5, 1.89 µM (inactive). Further, the GI50 with HL-60 and with MOLT-4 was 2.84 µM (inactive) each time.
As for `O=C(CC/C(CC(=O)c1ccc(Cl)cc1)=N/O)Nc1ccc(Cl)c(Cl)c1`, the GI50 with SK-MEL-2 was 38.3 µM (inactive); in the assay with NCI-H460, > 100 µM (inactive); in the assay with CAKI-1, 86.1 µM (inactive); with SNB-19, > 100 µM (inactive); in the assay on KM12 it was > 100 µM (inactive); in the assay on OVCAR-5 it was 24 µM (inactive). The GI50 in the assay on UACC-62 was 18.3 µM (inactive); with HCT-15, 48.1 µM; in the assay on OVCAR-8, > 100 µM (inactive); in the assay with OVCAR-3, > 100 µM (inactive); in the assay with SF-268 it was > 100 µM (inactive); with SF-295, > 100 µM (inactive). In addition, the values for the GI50 in the assay on SK-MEL-5, in the assay on HL-60 and in the assay with MOLT-4 were 76.2 µM (inactive), > 100 µM (inactive) and 53.2 µM (inactive), respectively.
With `COc1cc2ccnc(C#N)c2cc1OCc1ccccc1`, the GI50 is 64.1 µM (inactive) with SK-MEL-2; > 100 µM (inactive) with NCI-H460; > 100 µM (inactive) in the assay on CAKI-1; 84.1 µM (inactive) with SNB-19; > 100 µM (inactive) in the assay on KM12; > 100 µM (inactive) in the assay on OVCAR-5. Also, the GI50 is > 100 µM in the assay with HCT-15; > 100 µM (inactive) with OVCAR-8; > 100 µM (inactive) with OVCAR-3; 39.2 µM (inactive) in the assay with SF-268; 32.1 µM (inactive) with SF-295; > 100 µM (inactive) with SK-MEL-5. Also, the GI50 in the assay with MOLT-4 is > 100 µM (inactive).
As for `CC1=C2CC[C@@]3(C)C(=CCC3O)C2(C)CCC1=O` (stereo partly drawn), the GI50 with NCI-H460, with CAKI-1, in the assay with SNB-19, in the assay with KM12, in the assay with LOX IMVI and with OVCAR-5 was > 100 µM (inactive) throughout. For the same compound, the GI50 in the assay with UACC-62 is 56.4 µM (inactive); in the assay on HCT-15, > 100 µM; with OVCAR-8, > 100 µM (inactive); with OVCAR-3 it was > 100 µM (inactive); with SF-268, > 100 µM (inactive); in the assay on SF-295, > 100 µM (inactive). For the same compound, the GI50 in the assay on SK-MEL-5, in the assay with HL-60 and with MOLT-4 was > 100 µM (inactive) throughout.
As to `CC1CC2CC(=O)CC3(C1)C2CCCN3CCCO` (stereo not drawn), the GI50 in the assay on SK-MEL-2, in the assay on NCI-H460, in the assay on CAKI-1, in the assay on SNB-19, in the assay on KM12 and in the assay on LOX IMVI was > 100 µM (inactive) throughout. The GI50 in the assay on OVCAR-5, in the assay on UACC-62, in the assay with OVCAR-8, in the assay with OVCAR-3, in the assay on SF-268 and with SF-295 was > 100 µM (inactive) in each case. Also, the GI50 in the assay on SK-MEL-5, with HL-60 and in the assay on MOLT-4 was > 100 µM (inactive) in each case.
